Legend:
[1] = compound: Cc1c2c(nn1C)CSCc1cc(n(C)n1)CSc1cc(c3ccccc3c1)OCCCc1c(C(=O)O)n(C)c3c-2c(Cl)ccc13 [AZD5991]; conditions: max 1 µM
Outline: (§1)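 Plates with 1536 wells received cancer cell lines in 7.5 μl of DMEM/F12 or RPMI containing 10% FBS. After 24 hours at 37°C and 5% CO2, cells were dosed for 72 hours with final DMSO typically 0.2%, and viability was read by CellTiter-Glo 2.0 luminescence scaled between blank-well and DMSO-well means. The single-agent IC50 was taken from a logistic fit of the dose responses made with a non-linear mixed effects model, that logistic curve having two parameters.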

[2] = compound: CC(C)n1c(=O)n(C)c2cnc3cc(F)c(-c4ccc(OCCCN5CCCCC5)nc4)cc3c21 [AZD1390]; conditions: max 0.3 µM
Outline: as §1

[3] = compound: Nc1ccn([C@@H]2O[C@H](CO)[C@@H](O)C2(F)F)c(=O)n1 [Gemcitabine]; conditions: max 0.3 µM
Outline: as §1

[4] = compound: C1CN(CCC1(C(=O)N[C@@H](CCO)C2=CC=C(C=C2)Cl)N)C3=NC=NC4=C3C=CN4 [AZD5363]; conditions: max 10 µM
Outline: as §1

[5] = compound: CCc1c2c(nc3ccc(O)cc13)-c1cc3c(c(=O)n1C2)COC(=O)[C@]3(O)CC [SN-38]; conditions: max 0.3 µM
Outline: as §1

[6] = compound: C[C@@H](Nc1cc(F)cc(F)c1)c1cc(C(=O)N(C)C)cc2c(=O)cc(N3CCOCC3)oc12 [AZD8186]; conditions: max 10 µM
Outline: as §1

[7] = compound: O=c1[nH]cc(F)c(=O)[nH]1 [5-Fluorouracil]; conditions: max 20 µM
Outline: as §1

[8] = compound: COc1cc(Nc2ncc3c(n2)-c2ccc(Cl)cc2C(c2c(F)cccc2OC)=NC3)ccc1C(=O)O [Alisertib]; conditions: max 10 µM
Outline: as §1

[9] = compound: C=CCn1c(=O)c2cnc(Nc3ccc(N4CCN(C)CC4)cc3)nc2n1-c1cccc(C(C)(C)O)n1 [AZD1775]; conditions: max 3 µM
Outline: as §1

[10] = compound: O=C(c1cc(Cc2n[nH]c(=O)c3ccccc23)ccc1F)N1CCN(C(=O)C2CC2)CC1 [Olaparib]; conditions: max 10 µM
Outline: as §1

[11] = compound: NC1(c2ccc(-c3nc4ccn5c(=O)[nH]nc5c4cc3-c3ccccc3)cc2)CCC1 [MK-2206]; conditions: max 10 µM
Outline: as §1

[12] = compound: CC1=CN2[C@@H](C1)C=NC3=CC(=C(C=C3C2=O)OC)OCCCCCOC4=C(C=C5C(=C4)N=C[C@@H]6CC(=CN6C5=O)C)OC [SG3199]; conditions: max 0.001 µM
Outline: as §1

[13] = compound: O=C(Nc1ccc2[nH]nc(-c3ccncc3)c2c1)[C@@H]1CCN(CC(=O)N2CCN(c3ccc(-c4ncccn4)cc3)CC2)C1; conditions: max 5 µM
Outline: as §1

[14] = compound: CC(=O)c1c(C)c2cnc(Nc3ccc(N4CCNCC4)cn3)nc2n(C2CCCC2)c1=O [Palbociclib]; conditions: max 10 µM
Outline: as §1

[15] = compound: CN(C)CCCOc1ccc(-c2ccc3ncc4c(c3c2)n(C2CCOCC2)c(=O)n4C)cn1 [AZD0156]; conditions: max 3 µM
Outline: as §1

[16] = compound: COc1cc2ncnc(Nc3ccc(F)c(Cl)c3)c2cc1OCCCN1CCOCC1 [Gefitinib]; conditions: max 10 µM
Outline: as §1

[17] = compound: COc1cc([C@@H]2c3cc4c(cc3[C@@H](O[C@@H]3O[C@@H]5CO[C@@H](C)O[C@H]5[C@H](O)[C@H]3O)[C@H]3COC(=O)[C@H]23)OCO4)cc(OC)c1O [Etoposide]; conditions: max 10 µM
Outline: as §1

[18] = compound: CC(=O)O[C@H]1C(=O)[C@@]2(C)[C@H]([C@H](OC(=O)c3ccccc3)[C@]3(O)C[C@H](OC(=O)[C@H](O)[C@@H](NC(=O)c4ccccc4)c4ccccc4)C(C)=C1C3(C)C)[C@]1(OC(C)=O)CO[C@@H]1C[C@@H]2O [Paclitaxel]; conditions: max 3 µM
Outline: as §1

[19] = compound: CCN(CCO)CCCOc1ccc2c(Nc3cc(CC(=O)Nc4cccc(F)c4)[nH]n3)ncnc2c1 [AZD2811]; conditions: max 1 µM
Outline: as §1

[20] = compound: CC(=O)Nc1cccc(-n2c(=O)n(C3CC3)c(=O)c3c(Nc4ccc(I)cc4F)n(C)c(=O)c(C)c32)c1 [Trametinib]; conditions: max 1 µM
Outline: as §1

[21] = compound: C[C@@H](c1ccc2nccn2c1)n1nnc2ncc(-c3cnn(C)c3)nc21 [Savolitinib]; conditions: max 1 µM
Outline: as §1

[22] = compound: COc1nnc2ccc(N3CCC(c4ccc(OCCN5CCN(C)C(=O)[C@H]5C)cc4)CC3)nn12 [AZD5153]; conditions: max 1 µM
Outline: as §1

[23] = compound: COc1cccc2c1C(=O)c1c(O)c3c(c(O)c1C2=O)C[C@@](O)(C(=O)CO)C[C@@H]3O[C@H]1C[C@H](N)[C@H](O)[C@H](C)O1 [Doxorubicin]; conditions: max 1 µM
Outline: as §1

[24] = compound: CN(CC[C@H](CSC1=CC=CC=C1)NC2=C(C=C(C=C2)S(=O)(=O)NC(=O)C3=CC=C(C=C3)N4CCC(CC4)[C@H](C5=CC=CC=C5C6=CC=C(C=C6)Cl)O)S(=O)(=O)C(F)(F)F)CCO [AZD4320]; conditions: max 1 µM
Outline: as §1

[25] = compound: C1CC(C1)(C(=O)[O-])C(=O)[O-].N.N.[Pt+2] [Carboplatin]; conditions: max 10 µM
Outline: as §1

[26] = compound: C[C@@H]1COCCN1C2=NC(=NC(=C2)C3(CC3)[S@](=N)(=O)C)C4=C5C=CNC5=NC=C4 [AZD6738]; conditions: max 10 µM
Outline: as §1

[27] = compound: CS(=O)(=O)CCNCc1ccc(-c2ccc3ncnc(Nc4ccc(OCc5cccc(F)c5)c(Cl)c4)c3c2)o1 [Lapatinib]; conditions: max 10 µM
Outline: as §1

[28] = compound: C[C@@H](Oc1cc(-c2cnn(C3CCNCC3)c2)cnc1N)c1c(Cl)ccc(F)c1Cl [Crizotinib]; conditions: max 10 µM
Outline: as §1

[29] = compound: CC1(C)CCC(CN2CCN(c3ccc(C(=O)NS(=O)(=O)c4ccc(NCC5CCOCC5)c([N+](=O)[O-])c4)c(Oc4cnc5[nH]ccc5c4)c3)CC2)=C(c2ccc(Cl)cc2)C1 [Venetoclax]; conditions: max 1 µM
Outline: as §1

[30] = compound: Cc1nc(-c2cn3c(n2)-c2ccc(-c4cnn(C(C)(C)C(N)=O)c4)cc2OCC3)n(C(C)C)n1 [Taselisib]; conditions: max 10 µM
Outline: as §1

[31] = compound: N#Cc1cnc(Nc2cc(NC[C@H]3CNCCO3)c(C(F)(F)F)cn2)cn1 [SRA737]; conditions: max 10 µM
Outline: as §1

[32] = compound: COc1cccc(OCCCN)c1-c1cc(Nc2cnc(C#N)cn2)n[nH]1 [Prexasertib]; conditions: max 1 µM
Outline: as §1

[33] = compound: Cn1cnc2c(F)c(Nc3ccc(Br)cc3Cl)c(C(=O)NOCCO)cc21 [Selumetinib]; conditions: max 10 µM
Outline: as §1

[34] = compound: Cc1cc2ncnn2cc1Nc1ncc2c(n1)n(C1CCOCC1)c(=O)n2C [AZD7648]; conditions: max 10 µM
Outline: as §1

[35] = compound: CC1=C(C(=CC=C1)Cl)NC(=O)C2=CN=C(S2)NC3=CC(=NC(=N3)C)N4CCN(CC4)CCO [Dasatinib]; conditions: max 2 µM
Outline: as §1

Row | Cell Line | IC50, cell viability 72 h [1] | IC50, cell viability 72 h [2] | IC50, cell viability 72 h [3] | IC50, cell viability 72 h [4] | IC50, cell viability 72 h [5] | IC50, cell viability 72 h [6] | IC50, cell viability 72 h [7] | IC50, cell viability 72 h [8] | IC50, cell viability 72 h [9] | IC50, cell viability 72 h [10] | IC50, cell viability 72 h [11] | IC50, cell viability 72 h [12] | IC50, cell viability 72 h [13] | IC50, cell viability 72 h [14] | IC50, cell viability 72 h [15] | IC50, cell viability 72 h [16] | IC50, cell viability 72 h [17] | IC50, cell viability 72 h [18] | IC50, cell viability 72 h [19] | IC50, cell viability 72 h [20] | IC50, cell viability 72 h [21] | IC50, cell viability 72 h [22] | IC50, cell viability 72 h [23] | IC50, cell viability 72 h [24] | IC50, cell viability 72 h [25] | IC50, cell viability 72 h [26] | IC50, cell viability 72 h [27] | IC50, cell viability 72 h [28] | IC50, cell viability 72 h [29] | IC50, cell viability 72 h [30] | IC50, cell viability 72 h [31] | IC50, cell viability 72 h [32] | IC50, cell viability 72 h [33] | IC50, cell viability 72 h [34] | IC50, cell viability 72 h [35]
1 | SK-MEL-24 (Melanoma) | > 1000 nM | > 300 nM | 193 nM | > 10 µM | 23.9 nM | > 10 µM | > 20 µM | > 10 µM | > 3000 nM | > 10 µM | > 10 µM | > 1 nM | 3.27 µM | > 10 µM | > 3000 nM | > 10 µM | > 10000 nM | 738 nM | > 1000 nM | 46.3 nM | > 1000 nM | > 1000 nM | 701 nM | > 1000 nM | > 10 µM | > 10 µM | > 10 µM | > 10 µM | > 1000 nM | 5 µM | > 10000 nM | 575 nM | 2770 nM | > 10 µM | > 2000 nM
2 | L-363 (Plasma Cell Myeloma) | 134 nM | > 300 nM | 258 nM | > 10 µM | > 300 nM | > 10 µM | > 20 µM | > 10 µM | 231 nM | > 10 µM | 8.5 µM | > 1 nM | > 5 µM | > 10 µM | > 3000 nM | > 10 µM | > 10000 nM | 5.31 nM | > 1000 nM | > 1000 nM | > 1000 nM | 381 nM | > 1000 nM | > 1000 nM | > 10 µM | 2.77 µM | > 10 µM | > 10 µM | 694 nM | 9.12 µM | 1220 nM | 5.32 nM | > 10000 nM | > 10 µM | > 2000 nM
3 | BC-1 (B-Cell Non-Hodgkin's Lymphoma) | 87.2 nM | > 300 nM | 15.4 nM | 4.4 µM | 5.32 nM | > 10 µM | 17.2 µM | 0.0653 µM | 321 nM | > 10 µM | 4.1 µM | > 1 nM | > 5 µM | 0.342 µM | 2420 nM | 9.56 µM | 770 nM | 12.1 nM | 199 nM | > 1000 nM | > 1000 nM | 17.5 nM | 50 nM | > 1000 nM | > 10 µM | 2.95 µM | 8.74 µM | 1.69 µM | > 1000 nM | > 10 µM | 2700 nM | 13 nM | > 10000 nM | > 10 µM | > 2000 nM
4 | A375 (Melanoma) | > 1000 nM | > 300 nM | 9.74 nM | > 10 µM | 7.4 nM | > 10 µM | > 20 µM | 8.15 µM | 813 nM | > 10 µM | > 10 µM | > 1 nM | 0.538 µM | > 10 µM | > 3000 nM | > 10 µM | 2610 nM | 42 nM | > 1000 nM | 12.6 nM | > 1000 nM | > 1000 nM | 265 nM | > 1000 nM | > 10 µM | 9.24 µM | > 10 µM | > 10 µM | > 1000 nM | > 10 µM | > 10000 nM | 210 nM | 693 nM | > 10 µM | > 2000 nM
5 | NCI-H1648 (Lung Adenocarcinoma) | > 1000 nM | > 300 nM | > 300 nM | 9.59 µM | 59.6 nM | > 10 µM | > 20 µM | 7.89 µM | 1310 nM | > 10 µM | 9.83 µM | > 1 nM | > 5 µM | > 10 µM | > 3000 nM | 2.34 µM | > 10000 nM | 12.4 nM | > 1000 nM | 28.9 nM | > 1000 nM | 203 nM | > 1000 nM | > 1000 nM | > 10 µM | 4.85 µM | 1.99 µM | 8.99 µM | > 1000 nM | 0.146 µM | > 10000 nM | 156 nM | > 10000 nM | > 10 µM | 373 nM

— the supplement of paper PMC11061612
